In patent US6410572B1 (priority 2000, dated 2002):

Experiments:
Botrytis cinerea = assay: Activity against Botrytis cinerea on bell peppers (fruit disks, protective spray); format: in vivo; conditions: green bell pepper disks, 4 days at 18° C.
Experimental: The active ingredients, separately or together, are formulated as a 10% emulsion in a mixture of 63% by weight of cyclohexanone and 27% by weight of emulsifier, and diluted with water to the desired concentration.
Evaluation is carried out by determining the infected leaf areas in percent. These percentages are converted into efficacies. The efficacy (W) is calculated as follows using Abbot's formula: […]
α corresponds to the fungal infection of the treated plants in % and
β corresponds to the fungal infection of the untreated (control) plants in %
An efficacy of 0 means that the infection level of the treated plants corresponds to that of the untreated control plants; an efficacy of 100 means that the treated plants were not infected.
The expected efficacies of the mixtures of the active ingredients were determined using Colby's formula [R. S. Colby, Weeds 15, 20-22 (1967)] and compared with the observed efficacies.
Colby's formula: E=x+y−x·y/100
Disks of green bell peppers were sprayed to runoff point with an aqueous preparation of active ingredient which had been prepared from a stock solution comprising 10% of active ingredient, 63% of cyclohexanone and 27% of emulsifier. 2 hours after the spray coating had dried on, the fruit disks were inoculated with a spore suspension of Botrytis cinerea containing 1.7×10^6 spores per ml of a 2% strength Biomalz solution. The inoculated fruit disks were subsequently incubated in humid chambers at 18° C. for 4 days. The Botrytis infection on the diseased fruit disks was then evaluated visually.

Phytophthora infestans = format: in vivo; conditions: 0.8 ppm active ingredient in the spray liquor; tomato leaves; after 6 days at 16-18° C.
[1] = 12.5 ppm active ingredient in the spray liquor
[2] = 50 ppm active ingredient in the spray liquor

SMILES | Efficacy in % of the untreated control (Botrytis cinerea; [1]) | Efficacy in % of the untreated control (Phytophthora infestans) | Efficacy in % of the untreated control (Botrytis cinerea; [2])
O=C(Nc1ccccc1-c1ccc(F)cc1)c1cccnc1Cl [Compound I.1] | 20% | 0% | –
N#Cc1c(Cl)c(Cl)c(Cl)c(C#N)c1Cl [Compound II, Tetrachloroisophthalonitrile, reference compound] | 0% | 0% | 0%
O=C(Nc1ccccc1-c1ccc(Cl)cc1)c1cccnc1Cl [Compound I.2] | – | 0% | 85%
